Laboratory results: US10493061B2, “Compositions and methods comprising 2-(acylamino)imidazoles” (priority 2014, dated 2019)
pIC50: −log10 of the molar value.

Assays:
[1] = system: MCF-7s; test: Cell viability of MCF-7 cells treated with ZNA and ZNA analogues; assay type: cell-based, human; conditions: Homo sapiens, MCF7S; 24 h treatment
From the text: Of the analogues evaluated, those with more electron-donating groups at C5 or on the N^2-carbonyl seem to improve activity.

[2] = system: MCF-10A cells; test: Intracellular Zn^2+ by FluoZin-3 staining and flow cytometry; assay type: cell-based, human
Method: Measurement of intracellular Zn^2+ by FluoZin-3 staining: Cells were seeded in 6-well plates at a density such that at the time of analysis, wells would be 70-80% confluent. Following the completion of treatment, the drug-containing media was removed and replaced with Hank's Balanced Salt Solution (HBSS, Life Technologies) containing 2.5 μM FluoZin-3. The cells were incubated with the indicator for 30 minutes at room temperature in the dark. After staining, the cells were trypsinized, resuspended in HBSS containing 2% FBS, and relative mean fluorescence was measured by flow cytometry (FACscan, BD Biosciences, San Jose, Calif., USA).
In order to determine whether the transcriptional changes in metal trafficking genes were functionally relevant to ZNA's mechanism of action, intracellular Zn^2+ was quantified using the fluorescent indicator FluoZin-3 followed by flow cytometry analysis (FIG. 1G).
To better understand the cancer-selective synergism observed between ZNA and Zn^2+, an experiment was conducted to measure intracellular Zn^2+ using the fluorescent Zn^2+ indicator FluoZin-3.
Further probing the ability of ZNA to stimulate increases in intracellular Zn^2+, MCF-10A and MCF-7 cells were treated for three hours with 30 μM ZNA (both with and without exogenous ZnSO4) in zinc-free media; intracellular zinc was then quantified by FluoZin-3 staining (FIG. 3B).

[3] = system: MCF-10A normal mammary epithelial cell line; test: Cell death by propidium iodide staining and flow cytometry; assay type: cell-based, human
Method: Measurement of cell death by propidium iodide staining: Cells were cultured to 80% confluence in 6-well plates and the growth media was then replaced with low serum (2% FBS) drug-containing media. Each condition was assessed in triplicate. Following the completion of treatment, the media and floating cells were collected and combined with the trypsinized adherent cells. The cells were washed with 2% FBS/HBSS, and resuspended in a propidium iodide solution (Cell Signaling) for analysis by flow cytometry. The percentage of propidium iodide positive cells for each treatment condition were averaged and normalized to the vehicle-treated control. The normalized data were plotted as the average±standard error of three replicates.
In order to validate the transition metal screen with a second cell viability assay, propidium iodide uptake was measured in four cell lines by flow cytometry following a 24-hour treatment with either 30 μM ZNA alone or in combination with 30 µM CuSO4 or 30 μM ZnSO4 (FIG. 2B).
Since autophagy can stimulate both pro-death and pro-survival pathways, experiments were next conducted to assess how autophagic inhibitors impacted ZNA's cell death profile. […] As such, cells were treated with ZNA in combination with chloroquine, an inhibitor of autophagosome function, and cell death was assessed by propidium iodide stain following 72 hours of treatment. […]

[4] = system: MCF-10A cells; test: Cellular proliferation, EdU incorporation assay; assay type: cell-based, human; conditions: ZNA/ZnSO4, 6 hours
[5] = in vivo; set-up: species or system Sprague-Dawley rats; conditions: rat
Method: ZNA has promising pkpd parameters. An initial pharmacokinetic (PK) analysis on ZNA was performed at 1 mg/kg IV, 5 mg/kg PO. ZNA was dosed to female Sprague-Dawley rats at either 1 mg/kg intravenously or at 5 mg/kg orally. Plasma was collected with K2EDTA and stored at −80° C. until analysis. Quantification of ZNA was performed by protein precipitation followed by ultra-high performance liquid chromatography (UHPLC) interfaced to an electrospray ionization quadrapole time-of-flight mass spectrometer (ESI-QTOF). Plasma concentrations were determined from a calibration curve using […]. The values determined were fit with Phoenix WinNonlin and pharmacokinetic values reported.
The plasma concentrations for ZNA were very low, and most samples fell below the lower limit of quantification for the assay (10.0 ng/mL). This limited the data available for fitting in WinNonlin. To increase the amount of data for fitting, values from below the curve were extrapolated to approximately 40% of the LLOQ and were used for PK fitting. The percent of the area extrapolated in the PO PK animals ranged from 34-70% which was considered quite high. […] The oral bioavailability determined was approximately 6%. This value is considered a rough estimate based upon the area extrapolated and the unusually high clearance determined. […] Possible explanations for the high clearance are binding of compound to red blood cells, extremely rapid clearance that requires collection of earlier time points to establish a more accurate CO, and extrahepatic elimination.

[6] = system: untransformed MCF-10A cells; test: Clonogenic cell survival assay; conditions: 24 hours ZNA, then three weeks of growth, crystal violet
Method: Clonogenic cell survival assays were conducted as described in Franken NAP, Rodermond H M, Stap J, Haveman J, van Bree C.
Further experiments were also conducted to assess the effects of short-term ZNA treatment on long-term cell survival and proliferation. Cells were treated for 24 hours with ZNA then cultured in the absence of the small molecule; following three weeks of growth, colonies were stained with crystal violet and quantified (FIG. 1D).

COc1ccc(-c2c(Cc3ccccc3)[nH]/c(=N\C(=O)c3ccccc3F)n2C)cc1 [ZNA, (E)-N-(4-benzyl-5-(4-methoxyphenyl)-1-methyl-1H-imidazol-2(3H)-ylidene)-2-fluorobenzamide]
pIC50 [1]: 5.06 | FluoZin-3 fluorescence ([2]; 30 μM ZNA alone, three hours, zinc-free media): no significant increase in FluoZin-3 fluorescence | intracellular zinc (FluoZin-3) ([2]; 30 μM ZNA alone, up to 48 hours): only modest increases in intracellular zinc | increase in FluoZin-3 fluorescence ([2]; 30 μM ZNA with 30 μM ZnSO4, three hours): 9 fold | fluorescence (FluoZin-3) ([2]; ZNA and ZnSO4, three hours, zinc-free media, compared to ZnSO4 alone): reduction in fluorescence | cell death (propidium iodide uptake) ([3]; 30 μM ZNA with 30 μM ZnSO4, 24 hours): unaffected | ZNA-induced cell death (propidium iodide) ([3]; ZNA with chloroquine, 72 hours): did not significantly affect cell death | proliferation (EdU) [4]: somewhat affected | bioavailability ([5]; female, Sprague-Dawley): ~6% | half-life ([5]; female, Sprague-Dawley): 1.9 h | clearance relative to hepatic blood flow ([5]; female, Sprague-Dawley, iv): 235% | AUC(0-inf) ([5]; female, Sprague-Dawley, iv, 1 mg/kg, AUCINF_obs): 129 ng·h/mL | AUC ([5]; female, Sprague-Dawley, iv, 1 mg/kg, AUCall): 119 ng·h/mL | MRT inf ([5]; female, Sprague-Dawley, iv, 1 mg/kg, MRTINF_obs): 2.1 h | percent of the area extrapolated ([5]; female, Sprague-Dawley, po): 34-70% | Cmax ([5]; female, Sprague-Dawley, po, 5 mg/kg, Cmax): 11.5 ng/mL | volume of distribution ([5]; iv): very high volume of distribution | long-term proliferative potential (colonies) [6]: greatly attenuated
